# Experimental data reported in ChEMBL document CHEMBL5620368, “Molecular-level strategic goals and repressors in Leishmaniasis - Integrated data to accelerate target-based heterocyclic scaffolds” (Eur J Med Chem, 2023).
# Columns and labels:
# [1] = Inhibition of recombinant Leishmania mexicana Trypanothione reductase
# [2] = test system: Leishmania infantum; experiment: Antiprotozoal activity against Leishmania infantum intracellular amastigotes infected in human THP-1 derived macrophage cells assessed as reduction in parasite viability measured for 72 hrs by resazurin/alamar blue fluorometric assay; assay type: functional, organism-based; conditions: THP-1, 72 h
# [3] = test system: Leishmania infantum; experiment: Antileishmanial activity against Leishmania infantum promastigotes assessed as reduction in cell viability incubated for 24 hrs by propidium iodide staining based flow cytometry assay; assay type: functional, organism-based
# [4] = test system: Leishmania amazonensis; experiment: Antileishmanial activity against axenic amastigote form of patient derived Leishmania amazonensis MHOM/BR/77/LTB001 assessed as parasite growth inhibition incubated for 24 hrs; assay type: functional, organism-based; conditions: MHOM/BR/77/LTB001, 24 h
# [5] = test system: Leishmania amazonensis; experiment: Antileishmanial activity against Leishmania amazonensis promastigotes assessed as parasite growth inhibition incubated for 24 hrs; assay type: functional, organism-based
# [6] = test system: Leishmania braziliensis; experiment: Antileishmanial activity against Leishmania braziliensis MHOM/Br/75/M2903 promastigotes assessed as reduction in parasite growth incubated for 72 hrs by MTT assay; assay type: functional, organism-based; conditions: MHOM/Br/75/M2903, 72 h
# [7] = test system: Leishmania braziliensis; experiment: Antileishmanial activity against Leishmania braziliensis MHOM/Br/75/M2903 amastigotes assessed as reduction in parasite growth incubated for 72 hrs by MTT assay; assay type: functional, organism-based; conditions: MHOM/Br/75/M2903, 72 h
# [8] = test system: Leishmania tropica; experiment: Antileishmanial activity against Leishmania tropica promastigote assessed as inhibition of parasite growth incubated for 72 hrs by MTT assay; assay type: functional, organism-based
# [9] = test system: Leishmania donovani; experiment: Antileishmanial activity against Leishmania donovani promastigotes assessed as reduction in parasite growth incubated for 48 hrs by MTT assay; assay type: functional, organism-based
# [10] = test system: Leishmania amazonensis; experiment: Antileishmanial activity against Leishmania amazonensis intracellular amastigotes assessed as parasite growth inhibition at 109 uM incubated for 96 hrs relative to control; assay type: functional; set-up: scale not given: the % may be the effect or the level left
# [11] = Cytotoxicity against mouse Peritoneal macrophages assessed as reduction in cell viability incubated for 24 hrs by MTT assay; assay type: toxicity, cell-based, Peritoneal macrophage
structure (smiles),measurement,setting,value
O=C(NCc1ccc2ncccc2c1)c1cnn(-c2ncc3c(n2)-c2ccccc2CCC3)c1C1CC1,IC50,[1],58 µM
CC[C@@]1(O)C(=O)OCc2c1cc1n(c2=O)Cc2c-1nc1ccccc1c2/C=N/OC(C)(C)C [GIMATECAN],IC50,[2],0.1 µM
same,IC50,[3],1.73 µM
CC1=CC(=O)C[C@H]2[C@H]1CC[C@@H](C)C21C[C@H](c2ccoc2)OC1=O (stereo partly specified),IC50,[4],20 µg/mL
same,IC50,[5],6.3 µg/mL
Oc1ccc(/C=N\Nc2ccccc2)c(O)c1,IC50,[6],7.3 µM
same,IC50,[7],21.7 µM
C[C@@H]1O[C@@H](OC[C@H]2O[C@@H](Oc3c(-c4ccc(O)c(O)c4)oc4cc(O)cc(O)c4c3=O)[C@H](O)[C@@H](O)[C@@H]2O)[C@H](O)[C@H](O)[C@H]1O [RUTIN],IC50,[8],91.2 µg/mL
CC[C@H](CC[C@@H](C)[C@H]1CC[C@H]2[C@@H]3CC=C4C[C@@H](O)CC[C@]4(C)[C@H]3CC[C@]12C)C(C)C [BETA-SITOSTEROL],IC50,[9],17.7 µg/mL
C=C(C)[C@@H]1CC[C@@]2(C)[C@H]1[C@H]1CC[C@@H]3[C@@]4(C)CC[C@H](O)C(C)(C)[C@@H]4[C@H](O)C[C@@]3(C)[C@]1(C)C[C@@H]2O,Activity,[10],80%
CC/C=C\C/C=C\CCC/C=C/C=C/C=C\CCCC(=O)O,IC50 at 24 h,[11],2 µM
